In the first test the test system is Sphaerotheca fuliginea. As to the kind of experiment: Test for control effect against powdery mildew of Cucurbitaceae (spray on cucumber seedlings). Format: in vivo. Particulars: 200 ppm spray, cucumber first foliage leaf, 10 days after inoculation. From the text: Test for Control Effect Against Powdery Mildew of Cucurbitaceae
A spray liquid comprising a test compound whose concentration was adjusted to be 200 ppm by dilution with water was sprayed to a cucumber grown in a vinyl pot of 3 cm in diameter when its first foliage leaf was developed. The air-dried cucumber seedling was inoculated with a conidium suspension of Sphaerotheca fuliginea. Thereafter, the cucumber seedling was transferred in an air-conditioned greenhouse. 10 Days after the inoculation, the disease severity was observed. The protective value was calculated by comparing the disease severity in a treated area with that in an untreated area. Then, control effect was ranked according to the following criterion.
B; protective value 50 to 79%
`CCc1cc(C(C)CC)cc2c(OC(C)=O)c(C)c(C)nc12` (racemic) [Compound No. 348]: the “rank (control effect, protective value from disease severity)” value is recorded as “A (protective value ≧80%)”.
The same measure, in the same setting: as for `CC(=O)Oc1c(C)c(C)nc2ccc(C3CCCCC3)cc12` [Compound No. 112], the entry is “A (protective value ≧80%)”.
As to `CCC(C)c1ccc2nc(C)c(C)c(OC(=O)N(C)C)c2c1` (centres unmarked) [compound 71], the “rank (control effect, protective value from disease severity)” value is recorded as “A (protective value ≧80%)”.
Still for that read-out and setting: the result for `C=CCC(=O)Oc1c(C)c(C)nc2ccc(C(C)CC)cc12` (centres unmarked) [compound 175] reads “A (protective value ≧80%)”; that for `CCC(C)c1ccc2nc(C)c(C)c(OC(=O)CC(C)C)c2c1` (centres unmarked) [compound 176], “A (protective value ≧80%)”.
On the same count and under the same terms, the result for `CC(=O)Oc1c(C)c(C)nc2cc(C)c(Br)cc12` [compound 196] reads “A (protective value ≧80%)”.

The test system of a further test is Pyricularia oryzae. Description: whole plant or invertebrate. Format: in vivo. As to conditions: 100 ppm spray, rice seedling (Jikkoku) 4-leaf stage, lesion number on fourth leaf 6 days after inoculation.
Regarding `CCc1cc(C(C)CC)cc2c(OC(C)=O)c(C)c(C)nc12` (racemic) [Compound No. 348], the “rank (control effect, protective value from lesion number)” value is given as “A (protective value ≧80%)”.
In the case of `CC(=O)Oc1c(C)c(C)nc2ccc(C)cc12` [Compound No. 2], the “rank (control effect, protective value from lesion number)” value is recorded as “B (protective value 50 to 79%)”.
Still for that read-out and setting: the result for `CCc1ccc2nc(C)c(C)c(O)c2c1` [Compound No. 9] reads “A (protective value ≧80%)”; that for `CCCc1ccc2nc(C)c(C)c(O)c2c1` [Compound No. 13], “A (protective value ≧80%)”.
In the case of `CCCCCCc1ccc2nc(C)c(C)c(O)c2c1` [Compound No. 107], the “rank (control effect, protective value from lesion number)” value is “A (protective value ≧80%)”.
Same read-out and setting: as for `CCCCCCc1ccc2nc(C)c(C)c(OC(C)=O)c2c1` [Compound No. 108], the entry is “A (protective value ≧80%)”; as for `Cc1nc2ccc(C3CCCCC3)cc2c(O)c1C` [Compound No. 111], “B (protective value 50 to 79%)”.
With `CC(=O)Oc1c(C)c(C)nc2ccc(C3CCCCC3)cc12` [Compound No. 112], the “rank (control effect, protective value from lesion number)” value is listed as “A (protective value ≧80%)”.
On to `CCCCCCCCc1ccc2nc(C)c(C)c(O)c2c1` [Compound No. 125], for which the “rank (control effect, protective value from lesion number)” value is given as “B (protective value 50 to 79%)”.
Consider `CCCCCCCCc1ccc2nc(C)c(C)c(OC(C)=O)c2c1` [Compound No. 126], for which the “rank (control effect, protective value from lesion number)” value is “A (protective value ≧80%)”.
Same read-out and setting: the result for `Cc1nc2ccc(C(F)(F)F)cc2c(O)c1C` [Compound No. 131] reads “B (protective value 50 to 79%)”.
The same measure, in the same setting: the result for `CC(=O)Oc1c(C)c(C)nc2c(C)cc(C)cc12` [Compound No. 262] reads “B (protective value 50 to 79%)”.
The same measure, in the same setting: the result for `CC(=O)Oc1c(C)c(C)nc2c(C(C)C)cc(C(C)C)cc12` [Compound No. 274] reads “A (protective value ≧80%)”; that for `CC(=O)Oc1c(C)c(C)nc2c(C)cc(C3CCCC3)cc12` [Compound No. 352, 4-Acetoxy-6-c-pentyl-8-methyl-2,3-dimethylquinoline], “A (protective value ≧80%)”.
Take `CCCc1ccc2nc(C)c(C)c(OC(C)=O)c2c1` [compound 14]: the “rank (control effect, protective value from lesion number)” value is on record as “A (protective value ≧80%)”.
The same measure, in the same setting: as for `Cc1nc2ccc(OC(C)C)cc2c(O)c1C` [compound 23], the entry is “B (protective value 50 to 79%)”; as for `CCCCc1ccc2nc(C)c(CC)c(OC(C)=O)c2c1` [compound 44], “A (protective value ≧80%)”.
As for `CCCCc1ccc2nc(C)c(CCCC)c(OC(C)=O)c2c1` [compound 46], the “rank (control effect, protective value from lesion number)” value was “A (protective value ≧80%)”.
For the molecule `CCCCc1ccc2nc(CC)c(C)c(OC(C)=O)c2c1` [compound 47], the “rank (control effect, protective value from lesion number)” value is recorded as “A (protective value ≧80%)”.
The same measure, in the same setting: the result for `CCCCc1ccc2nc(CCC)c(C)c(OC(C)=O)c2c1` [compound 48] reads “A (protective value ≧80%)”; that for `CCCCc1ccc2nc(CCCC)c(C)c(OC(C)=O)c2c1` [compound 49], “A (protective value ≧80%)”; that for `CCC(C)c1ccc2nc(C)c(C)c(O)c2c1` (centres unmarked) [compound 54], “A (protective value ≧80%)”.
Same read-out and setting: the result for `CCC(C)c1ccc2nc(C)c(C)c(OC(=O)C3CC3)c2c1` (centres unmarked) [compound 57] reads “A (protective value ≧80%)”; that for `CCC(C)c1ccc2nc(C)c(C)c(OC(=O)c3ccc(OC)cc3)c2c1` (centres unmarked) [compound 62], “A (protective value ≧80%)”; that for `CCC(C)c1ccc2nc(C)c(C)c(OC(=O)c3ccc(Cl)cc3)c2c1` (centres unmarked) [compound 63], “A (protective value ≧80%)”.
`CCC(C)c1ccc2nc(C)c(C)c(OC(=O)Oc3ccc(OC)cc3)c2c1` (centres unmarked) [compound 69]: the “rank (control effect, protective value from lesion number)” value was “A (protective value ≧80%)”.
Same read-out and setting: as for `CCC(C)c1ccc2nc(C)c(C)c(OC(=O)Oc3ccc(Cl)cc3)c2c1` (centres unmarked) [compound 70], the entry is “A (protective value ≧80%)”; as for `Cc1nc2ccc(C(C)(C)C)cc2c(O)c1C` [compound 83], “A (protective value ≧80%)”.
Consider `CC(=O)Oc1c(C)c(C)nc2ccc(C(C)(C)C)cc12` [compound 84], for which the “rank (control effect, protective value from lesion number)” value was “A (protective value ≧80%)”.
With `Cc1nc2ccc(CC(C)C)cc2c(O)c1C` [compound 92], the “rank (control effect, protective value from lesion number)” value is “B (protective value 50 to 79%)”.
Turning to `CCC(C)c1ccc2nc(C)c(C)c(OC(=O)C3CCCCC3)c2c1` (centres unmarked) [compound 170], the “rank (control effect, protective value from lesion number)” value is recorded as “A (protective value ≧80%)”.
In the case of `CCC(C)c1ccc2nc(C)c(C)c(OC(=O)c3ccc([N+](=O)[O-])cc3)c2c1` (centres unmarked) [compound 171], the “rank (control effect, protective value from lesion number)” value is recorded as “B (protective value 50 to 79%)”.
Take `CCC(C)c1ccc2nc(C)c(C)c(OC(=O)Cc3ccccc3)c2c1` (centres unmarked) [compound 172]: the “rank (control effect, protective value from lesion number)” value is “A (protective value ≧80%)”.
The same measure, in the same setting: the result for `CCCCCC(=O)Oc1c(C)c(C)nc2ccc(C(C)CC)cc12` (centres unmarked) [compound 173] reads “A (protective value ≧80%)”; that for `CCCCOC(=O)Oc1c(C)c(C)nc2ccc(C(C)CC)cc12` (centres unmarked) [compound 179], “A (protective value ≧80%)”; that for `CCCCCCCC(=O)Oc1c(C)c(C)nc2ccc(C(C)CC)cc12` (centres unmarked) [compound 180], “A (protective value ≧80%)”.
Same read-out and setting: the result for `CCc1cccc2nc(C)c(C)c(OC(C)=O)c12` [compound 182] reads “B (protective value 50 to 79%)”; that for `CCc1ccc2c(OC(C)=O)c(C)c(C)nc2c1` [compound 183], “B (protective value 50 to 79%)”; that for `CCCCc1cc(Br)c2nc(C)c(C)c(O)c2c1` [compound 186], “B (protective value 50 to 79%)”.
Regarding `Cc1nc2c(C)cc(Br)cc2c(O)c1C` [compound 190], the “rank (control effect, protective value from lesion number)” value is listed as “B (protective value 50 to 79%)”.
Same read-out and setting: the result for `Cc1nc2ccc(Br)c(C)c2c(O)c1C` [compound 191] reads “A (protective value ≧80%)”.
Same read-out and setting: as for `Cc1cc2nc(C)c(C)c(O)c2cc1Br` [compound 192], the entry is “A (protective value ≧80%)”; as for `Cc1nc2c(F)cc(Br)cc2c(O)c1C` [compound 193], “A (protective value ≧80%)”.
Still for that read-out and setting: as for `CC(=O)Oc1c(C)c(C)nc2c(C)cc(F)cc12` [compound 198], the entry is “B (protective value 50 to 79%)”.
For the molecule `CC=C(C)c1ccc2nc(C)c(C)c(O)c2c1` [compound 199], the “rank (control effect, protective value from lesion number)” value is “A (protective value ≧80%)”.
The same measure, in the same setting: as for `CC=C(C)c1ccc2nc(C)c(C)c(OC(C)=O)c2c1` [compound 200], the entry is “A (protective value ≧80%)”.

Still in this test, the particulars now being: Pyricularia oryzae, foliar, 144 h, read-out: rank (control effect, protective value from lesion number).
For the molecule `CCCCCc1ccc2nc(C)c(C)c(O)c2c1` [Compound No. 97, 4-hydroxy-2,3-dimethyl-6-n-pentyl-quinoline], the pest or weed control at 100 ppm was 50 to 79%.
The same measure, in the same setting: the result for `CCCCCc1ccc2nc(C)c(C)c(OC(C)=O)c2c1` [Compound No. 98, 4-acetoxy-2,3-dimethyl-6-n-pentyl-quinoline] reads above 80%; that for `CCC(C)c1cc(C)c2nc(C)c(C)c(OC(C)=O)c2c1` (centres unmarked) [Compound No. 206, 4-acetoxy-6-s-butyl-2,3,8-trimethylquinoline], above 80%.
Still for that read-out and setting: as for `CCC(C)c1cc(F)c2nc(C)c(C)c(OC(C)=O)c2c1` (centres unmarked) [Compound No. 212, 4-acetoxy-6-s-butyl-8-fluoro-2,3-dimethylquinoline], the figure is above 80%; as for `CCC(C)c1cc(OC)c2nc(C)c(C)c(OC(C)=O)c2c1` (centres unmarked) [Compound No. 220, 4-acetoxy-6-s-butyl-8-methoxy-2,3-dimethylquinoline], above 80%; as for `CC=C(C)c1cc(C)c2nc(C)c(C)c(OC(C)=O)c2c1` [Compound No. 360, 4-acetoxy-6-(2-buten-2-yl)-2,3,8-trimethylquinoline], above 80%.
The same measure, in the same setting: the result for `CC=C(C)c1cc(F)c2nc(C)c(C)c(OC(C)=O)c2c1` [Compound No. 362, 4-acetoxy-6-(2-buten-2-yl)-8-fluoro-2,3-dimethylquinoline] reads above 80%.
